Data published in US12178805B2, “Inhibitors of PDE6Delta for use in the prevention and/or treatment of epilepsy and/or neurodegenerative disorders” (ReMYND N.V., priority 2017, dated 2024).
Each block holds one compound with its values, some of them ahead of it.

Legend:
[1] = test system: VGCC activity in primary neurons; assay: KCl-induced Ca2+ influx (VGCC activity) in primary neurons; assay type: cell-based, mouse; conditions: for inhibition at 10 µM: Mus musculus, Primary neuron, relative to vehicle treated neurons, KCl depolarisation, read-out: % inhibition of cytosolic Ca^2+ influx
Method: Examplary compound 6 was tested for its ability to inhibit VGCC activity in primary neurons. Neurons from mouse embryos were harvested and cultured using standard methods (such as used in Schlager et al., 2014. Cell reports, 8(5), pp. 1248-56). To stimulate VGCC activity, neurons were depolarized using 45 mM KCl and incubated with vehicle or 1.5 μM of compound. Calcium influx was measured using fluorescent cytosolic Ca^2+ detection reagent Fura2.
Changes in cytosolic Ca^2+ concentrations were measured after loading the cells with Fura-2 AM (Sigma-Aldrich), a cell permeable fluorescent probe for Ca^2+. Briefly, Fura-2-AM was dissolved in DMSO plus 20% Pluronic Acid (F-127) (Invitrogen) in a 1:1 ratio and diluted in medium to a final concentration of 0.5 μM. Probenecid (Sigma-Aldrich) was added to this loading medium at a final concentration of 2.5 mM. Then, culture medium was replaced by loading medium and after incubation for 1 hour at 37° C. cells were washed twice and replaced with HBSS (Gibco) supplemented with 0.2% FBS and 0.02M HEPES. Next, changes in cytosolic calcium were measured using a FlexStation 3 microplate reader (Molecular Devices) and quantified ratiometric, by calculating changes in the amount of cytosolic Ca^2+ bound Fura-2 (fluorescence intensity at 340 nm) relative to the amount of Ca^2+ unbound Fura-2 (fluorescence intensity at 380 nm). Data was processed in SoftMax Pro 5.4.6 software (Molecular Devices).
Compounds 1-7 were tested at 10 μM for their ability to inhibit Ca^2+ influx in primary neurons (FIG. 5) as described in Example 21 (Table 5). Primary neurons treated with vehicle in which no compound was dissolved was used as a no-effect control. The percentage (%) inhibition of Ca^2+ influx relative to vehicle treated neurons was calculated.

[2] = test system: M17-TAU P301L cells; assay: TAU-toxicity model, LDH leakage of retinoic acid incubated M17-TAU P301L cells; assay type: cell-based, human; conditions: non-silenced cells
Excerpt: A TAU expression plasmid was constructed by sub-cloning the cDNA of human TAU-P301L (encoding for TAU with proline 301 substituted by a leucine residue) into mammalian expression vector pcDNA3.1 resulting in plasmid pcDNA3.1-TAU P301L. Plasmids pcDNA3.1 and pcDNA3.1-TAU P301L were transfected to human neuroblastoma cells ([…]; ATCC No. CRL-2267) and independent clonal lines with the plasmids stably integrated into the genome were selected. […] Expression of the TAU P301L genes in the cell lines was confirmed by Western analysis.
In degenerated or dead cells lactate dehydrogenase (LDH) leaks out of the cells into the extracellular environment due to a loss of plasma-membrane integrity. This principle was used to determine cytotoxicity by quantifying the level of leaked LDH into the growth medium relative to the sum of total LDH activity from living cells and dead cells.
(§1) The detailed method for determining cytotoxicity was as follows: From appropriate precultures of M17-3.1 and M17-TAU(P301L) cells were seeded at 2500 cells/cm2 in Optimem Reduced Serum without phenol red (Gibco, Cat. 31985-047) supplemented with 1% fetal calf serum, 1 mM sodium pyruvate, 1× non-essential amino acids, 500 μg/ml G418 0.5×antibiotic/antimycotic. After 3 hours of incubation at 37° C./5% CO2 1 volume of Optimem Reduced Serum (same as described above; except without fetal calf serum) supplemented with 2.5 μM all-trans retinoic acid (ATRA) was added. The cells were further incubated for 7 days. Subsequently, LDH activity was determined using Promega Cytotox 96 Non-Radioactive cytotoxicity assay, (Cat. G1780) according the supplier's instructions.
The M17-TAU P301L cell line made it possible to assess the ability of novel compounds to inhibit PDE6δ and counteract TAU cytotoxicity. […] These measurements were used to calculate EC50 values.

[3] = test system: PDE6δ silenced cells; assay: TAU-toxicity model in PDE6δ silenced cells; assay type: cell-based, human; conditions: compared with non-silenced cells
[4] = test system: RAP1A silenced cells; assay: TAU-toxicity model in RAP1A silenced cells; assay type: cell-based, human; conditions: compared with non-silenced cells
Method: as §1

[5] = test system: primary rat hippocampal neurons; assay: ex-vivo inhibition of oligomeric amyloid beta (Aβo/ADDL) toxicity in primary neurons; assay type: cell-based; conditions: 100 ng/mL, 1000 nM ADDL, 24 h
Method: An exemplary compound of this invention was tested for its ability to inhibit toxicity elicited by oligomeric amyloid beta (Aβo). Neurons from rat embryos were harvested and cultured using standard methods (such as used in Schlager et al., 2014. Cell reports, 8(5), pp. 1248-56.). Differentiated neurons were challenged with Aβo and viability was quantified.
At day in-vitro 19 days after isolation primary hippocampal neurons were transfected with Marcks-GFP in order to visualize the neurons with fluorescence microscopy.
ADDL (Abeta-derived diffusible ligands) preparation (representing Aβo) was done according to Klein (Klein, 2002. Neurochemistry international, 41(5), pp. 345-52.). Abeta 1-42 was purchased from AnaSpec Inc. and dissolved in HFIP to homogenize the peptide. HFIP was then evaporated in a speedvac and Abeta film was dried at −20° C. overnight over desiccant. Abeta film was then resolubilised in 100% DMSO and further diluted (1/25) in Ham's F12 medium. Blanks were prepared by adding equal amounts of DMSO to Ham's F12 medium. Abeta and Blank solutions were incubated overnight at 4° C.
At day in-vitro 21 primary rat hippocampal neurons were treated with equal volume of Blank/ADDL solution amounting to 0 and 1000 nM ADDL. Cultures were kept at 37° C. 5% CO2 for 24 h before PFA fixation. Viability was assessed using the Live-Dead assay from Thermo Fisher Catalog number: L3224.

[6] = test system: phosphorylated TAU in brain; assay: in vivo TAU phosphorylation in brain of transgenic APP*PS1 mice, Western analysis; set-up: species or system mouse; conditions: 20 mg/kg daily subcutaneously, 5-month old APP*PS1 mice, versus vehicle
Method: Transgenic human 5-month old APP*PS1 mice (The Journal of Neuroscience, Sep. 1, 2000, 20(17):6452-6458) were treated daily subcutaneously with 20 mg/kg Compound 6 or for two weeks with Compound A:
At the end of the treatment period, mice were sacrificed and the corresponding brains were used for biochemical analysis.

[7] = test system: transgenic human APP mice; assay: Morris Water Maze test in transgenic APP mice; assay type: in vivo, mouse; conditions: 20 mg/kg subcutaneously, daily for 8 weeks, versus vehicle
Method: Transgenic human 4-month old APP mice (THE JOURNAL OF BIOLOGICAL […] Vol. 274, No. 10, Issue of March 5, pp. 6483-6492, 1999) were treated subcutaneously, daily for 8 weeks with examplary Compound 6 at 20 mg/kg (FIG. 7). Cognition was assessed using the Morris Water Maze test. […] After the learning phase a probe test was conducted in which the platform was removed from the water bath to evaluate the spatial memory of the location of the platform.
Both indices indicate that compound treated mice have improved cognitive performance almost identical to wild type controls compared to vehicle treated mice.

[8] = test system: CA1 pyramidal neurons in tgAPP mouse brain slices; assay: firing rate of CA1 neurons in brain slices of tgAPP mice, patch clamp; conditions: 2 μM, 1 hr perfusion
Method: Brain slices from wild type and tgAPP mice were incubated with DMSO or Compound 6. Neurons were stimulated with increasing currents and the frequency of action potentials was measured.
Acute sagittal brain slices from WT or hAPP mice were prepared by decapitation of the mice after isoflurane anaesthesia. Brains were removed quickly and immersed during 3-4 min in ice-cold freshly prepared cutting artificial cerebrospinal fluid (cutting aCSF) containing (in mM) 214 sucrose, 2.5 KCl, 2 CaCl2), 2 MgSO4, 1.25 NaH2PO2, 26 NaHCO3 and 10 glucose and oxygenated with 95% O2/5% CO2. Sagittal 350 μm slices were generated using a vibratome (VT 1000S; Leica Microsystems) and were incubated in standard carboxygenated aCSF (in mM: 125 NaCl, 2.5 KCl, 2 CaCl2), 2 MgSO4, 1.25 NaH2PO2, 26 NaHCO3 and 10 glucose, osmolarity 305 mOsm) at 34° C. during 20 min. The incubation continued at room temperature (RT) for another hour before each slice was transferred to a submerged recording chamber and perfused continuously with carboxygenated aCSF. […]
Dendritic firing rate of CA1 cells was recorded in response to hyperpolarizing and depolarizing steps (−0.4 to +0.45 nA, steps of 0.05 nA) after a 1 hr perfusion with vehicle or compound at 2 μM. […]

[9] = test system: mouse brain slices; assay: afterhyperpolarization of single action potentials in mouse brain slices; conditions: slices incubated with compound versus vehicle
Method: A single spike was elicited by injecting a 2 ms depolarizing current pulse (35 pA) and action potential (AP) parameters were at baseline and after 25 min vehicle or compound perfusion.
Action potentials (AP) after electrical stimulation of mouse brain slices were analysed (FIG. 14).
The experiment was performed as described in Example 24.

[10] = biological target: T1, RAP1A binding on PDE6δ (Homo sapiens, UniProt O43924); assay: PDE6δ-STREP/HA pull-down from HEK293 cells with quantitative mass spectrometry of interactors; assay type: cell-based; conditions: 1 hour incubation of 1 μM
T1 construct: expressed in transfected cells
T1 sequence (O43924 whole entry): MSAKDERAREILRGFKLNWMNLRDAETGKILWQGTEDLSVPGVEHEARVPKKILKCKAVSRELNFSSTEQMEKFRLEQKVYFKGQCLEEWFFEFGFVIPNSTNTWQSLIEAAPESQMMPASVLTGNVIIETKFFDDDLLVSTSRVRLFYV
Excerpt: PDE6δ together with associated proteins was precipitated from a cellular extract either in the presence or absence of Compound A:
Using mass spectrometry based techniques interacting proteins were quantitatively identified in function of compound presence (FIG. 11).
In the absence of Compound A a host of interacting proteins were identified including known interactors such as Arl3 and RPGR. […] This effect is highly specific since a non-prenylated interactor of PDE6δ such as Arl3 which bind PDE6δ via different mechanisms is not impacted.
The cDNA encoding human PDE6δ was fused with a STREP-HA tag encoding DNA sequence and expressed in HEK293 cells using a standard expression vector. The bait sequence was verified by sequencing. […] Bait expression and solubility was monitored by immunoblotting using anti-HA antibodies. […]
Affinity purification and mass spectrometrical analysis of PDE6δ-strep-HA expressed in HEK293 cells was performed with three biological replicates for label free quantitative mass spectrometrical analysis. The samples were analyzed on a Thermo LTQ Orbitrap XL spectrometer using a C18 column, ESI and a 60 min gradient. The signals' intenstity are provided as 2 Log values and correlates to the concentration of the detected mass (number/amount of peptide). […]

SMILES: O=C(NCCc1c[nH]c2ccc(F)cc12)c1cc(Cc2ccc(F)cc2F)on1 [Compound 1]
inhibition at 10 µM [1]: 43%

SMILES: O=C(NCCc1c[nH]c2ccc(F)cc12)c1cc(Cc2ccc(F)c(F)c2)on1 [Compound 2]
inhibition at 10 µM [1]: 48%

SMILES: O=C(NCCc1c[nH]c2ccc(F)cc12)c1cc(Cc2cc(F)cc(F)c2)on1 [Compound 3]
inhibition at 10 µM [1]: 42%

SMILES: O=C(NCCc1c[nH]c2ccc(F)cc12)c1cc(Cc2ccc(F)cc2)on1 [Compound 4]
inhibition at 10 µM [1]: 39%

SMILES: O=C(NCCc1c[nH]c2ccc(F)cc12)c1cc(Cc2cccc(F)c2F)on1 [Compound 5]
inhibition at 10 µM [1]: 42%

SMILES: O=C(NCCc1c[nH]c2ccc(F)cc12)c1cc(Cc2cc(F)ccc2F)on1 [Compound 6]
effect on TAU-induced toxicity [2]: reduced toxicity
effect of the compound on lowering toxicity in PDE6δ silenced cells [3]: strongly reduced
compound effect on reducing neurotoxicity in RAP1A silenced cells [4]: strongly reduced
Ca^2+ influx upon KCl depolarisation ([1]; 1.5 μM, 45 mM KCl): significantly reduced
inhibition at 10 µM [1]: 43%
neuronal viability in Aβo treated neurons [5]: strongly rescued
TAU phosphorylation in brain extracts [6]: effectively reduced TAU phosphorylation
annulus crossing index in probe test [7]: higher annulus crossing index score
search path during training phase [7]: reduced search path
frequency of action potentials at high stimulation [8]: significantly lowered the frequency towards wild type level
afterhyperpolarization of action potentials [9]: increased

SMILES: O=C(NCCc1c[nH]c2ccc(F)cc12)c1cc(Cc2ccccc2F)on1 [Compound 7]
inhibition at 10 µM [1]: 56%

interaction of Arl3 (non-prenylated interactor) with PDE6δ [10]: not impacted
interaction of RAP1A with PDE6δ [10]: specifically reduced
SMILES: O=C(NCCc1c[nH]c2ccc(Cl)cc12)c1cc(Cc2cc(F)ccc2F)on1 [Compound A]

SMILES: c1ccc(Cn2c(-c3ccc(OC[C@H](C4CCNCC4)n4c(-c5ccccc5)nc5ccccc54)cc3)nc3ccccc32)cc1 [Deltarasin, reference compound]
effect on TAU-induced toxicity [2]: lowered toxicity
effect of the compound on lowering toxicity in PDE6δ silenced cells [3]: strongly reduced

SMILES: COC(=O)C1=C(C)NC(C)=C(C(=O)OC(C)C)C1c1cccc2nonc12 (stereo not shown) [isradepine]
effect on TAU-induced toxicity [2]: lowered toxicity
